Here are results for six molecules from patent US9381169B2, “Pharmaceutical composition and use of the pharmaceutical composition for the treatment, prophylaxis or prevention of neoplastic diseases in humans and animals” (UNIVERSIDADE BANDEIRANTE DE SÃO PAULO—ACADEMIA PAULISTA …, priority 2009, dated 2016).

Data set [1] has as its system polychromatic erythrocytes. The note with it: Wistar rats; for Observed frequencies of polychromatic erythrocytes with micronuclei in 1000 polychromatic erythrocytes: single intraperitoneal dose, cyclophosphamide 190 μM/Kg, DM-1 8 hours before cyclophosphamide. The text has this: We used animals of the Wistar strain, males and females, with approximately 90 days old and weighing between 250 and 300 grams, maintained with water and food “ad libitum” and in accordance with the rules and procedures regarding the use of laboratory animals. The animals were divided into four groups:
Negative control group—6 animals treated with a single dose of 0.7% saline solution.
Group treated with cyclophosphamide (positive control)—6 animals treated with a single dose of cyclophosphamide chemotherapy.
In all tests was administered 1 mL of the compound of interest intraperitoneally. […] Cyclophosphamide was administered at a concentration of 190 μM/Kg. The compounds were administered separately. At the end of the experiment (24 and 48 hours), animals were euthanized by deep general anesthesia induced by a lethal dose of sodium tiopentabarbital (CRMV, 2008).
This study allowed us to analyze the action of mutagenic compounds under study. Mutagenic compounds when administered in experimental animals cause changes in chromatin that can be identified by the formation of a mass within the nucleus called the micronucleus. The emergence of this mass is quantified and analyzed for their proportion to the capacity of a given drug or not to be mutagenic.
For micronucleus study we used the technique reported by Ribeiro et al. (Environmental Mutagenesis. Ulbra Publisher. Canoas: 1st edition, 2003.) For the staining of slides was used the technique described by Rabello-Gay et al. Apud SILVA, J. C. of; SILVA, S. of C. Evaluation of possible genotoxic effects of Gergilim (Sesamum indicum L., 2003).
In the test, the effect of the chemical agent is observed in anucleate polychromatic erythrocytes (ECPs), which have relatively short life span, so that it contains any micronucleus that was generated as a result of recent chromosomal damage. For the staining of slides was used Giemsa stain diluted in phosphate buffer at pH 6.8, in the ratio 1:10, for a period of 15 minutes. After staining, the slides were washed in distilled water to remove excess dye. To read the slides used an optical microscope and perform counting and analysis of 1000 polychromatic erythrocytes per slide, considering the frequency of micronucleated polychromatic erythrocytes.
The analysis was performed with cells increases 40× and 100× for the visualization of general morphology of the smears negative control group (FIG. 22), the groups treated with the compound DM1 and their polychromatic erythrocytes (FIGS. 23, 24 and 25). 1000 cells were analyzed per animal for the groups treated with DM1, negative control and cyclophosphamide for a total of 40,000 cells. The photodocumentation polychromatic erythrocytes was obtained by digital AVsoft. The group treated with cyclophosphamide was the positive control of the technique (FIG. 27).
The results were subjected to statistical analysis, the ANOVA test of variance followed by Tukey-Kramer multiple comparisons (parametric data) and the significance level of 5%, i.e., the probability P<0.05).

Data set [2] has as its system B16F10 melanoma. As to the kind of experiment: Survival rate, B16F10 melanoma. Format: in vivo, mice. The protocol: (§1) Groups of mice of the C57Bl/6J strain were injected subcutaneously dorsally with 5×10^4 B16F10 melanoma tumor cells under sterile conditions. The animals were observed every 72 hours and tumor growth monitored until the average diameter of […].
(§2) Paclitaxel-treated group—10 animals with B16F10 melanoma tumor, which after the 11th day of tumor implantation, received intraperitoneal doses of paclitaxel chemotherapy in […] of treatment;
(§3) After 14 days, the animals received implantation of B16F10 melanoma cells and received no treatment until the end of the experiment.
(§4) Paclitaxel was administered at a concentration of 15 μM/Kg, via intraperitoneal slow infusion, the treatment regimens described in the literature on days 1, 5 and 10, after the 7th day of tumor implantation. The compounds were administered separately.

Data set [3] in a line: Hematologic evaluation (erythrocytes, leukocytes, platelets), B16F10 melanoma. Format: in vivo, mice. Conditions: for platelet counts during treatment compared to the control group: B16F10 melanoma mice. The protocol:
(§5) The compounds were administered separately.
The blood of animals with B16F10 melanoma tumor was harvested in the 6th and 14th day during treatment with the compound DM-1 and prior to the inoculation of B16F10 cells. In the charts, collections for the day 6 were named 1A, while those relating to day 14 were named 2A. After implantation, tumor blood were collected in the second, sixth and tenth days of treatment (after treatment with DM-1) in all groups of animals, and these collections were named 1B and 2B and 3B, respectively.

In data set [4] the test system is B16F10 melanoma. As to the kind of experiment: Internal metastases, B16F10 melanoma. Format: in vivo, mice. As for the experimental part: as §1, §2
Group pre-treated with the DM-1 compound prior to the implant of B16F10 melanoma cells—10 animals were treated with daily doses of the compound DM-1 for 14 days before implantation of tumor cells. After 14 days, the animals received implantation of B16F10 melanoma cells and received no treatment until the end of the experiment.
Group pre-treated with the DM-1 compound prior to the implant of B16F10 melanoma cells and post-treated with DM-1 compound—10 animals were treated with daily doses of the compound DM-1 for 14 days before implantation of tumor cells. After 14 days, the animals received implantation of B16F10 melanoma cells and continued to receive daily treatment with the compound DM-1 for another 14 days.
as §5

In data set [5] the test system is B16F10 melanoma cells. As to the kind of experiment: Cell cycle phases and apoptosis of dorsal tumor cells (propidium iodide, FACSCalibur). It is filed as in vivo, mice. As for the experimental part: The cells were then frozen and kept in liquid nitrogen. After incubation with propidium iodide, the analysis was performed on a FACSCalibur cytometer. The results were expressed as mean percentage of cells in different phases of the cell cycle, debris and necrosis, apoptosis (sub-G1), quiescent non-proliferating cells G0/G1, S phase—synthesis of genetic material and G2/M at the beginning of cell division.

In data set [6] the test system is Ehrlich tumor. The data set can be described thus: Macroscopic spleen volume, Ehrlich tumor. The note with it: all experimental protocols with DM-1.
Description: (§6) We used 50 mice of the Balb-c strain, females and males, with approximately 25 g, aged approximately 6 to 8 weeks, with diet and water ad libitum, that were divided into 5 groups:
The spleens of animals from all experimental groups were analyzed for the display of nodes and metastases.
The subject of data set [7] is tumor cell lines. The note with it: PCT/BR2007/000175 and PI0602640-0; cited from earlier work.
The test system of data set [8] is B16F10 melanoma. The data set can be described thus: Tumor growth (dorsal tumor area), B16F10 melanoma. Format: in vivo. Conditions: C57Bl/6J mice. The protocol: as §1
Control group—10 animals with B16F10 melanoma tumor, which after the 11th day of tumor implantation, received daily intraperitoneal doses of saline 0.9%;
as §2, §3, §4

The conditions of data set [9]: cited from earlier work.
The test system of data set [10] is Ehrlich tumor. As to the kind of experiment: Number of renal and splenic metastases, Ehrlich tumor. It is filed as in vivo. The note with it: Balb-c mice. As for the experimental part: As an experimental model of mammary adenocarcinoma, we used the Ehrlich tumor in mice of the Balb-c strain, with approximately 2 months of age and weighing between 20 to 25 grams. The maintenance of the tumor in vivo was performed by intraperitoneal administration of 10^7 cells every seven days.
Paclitaxel and etoposide were administered at concentrations of 15 μM/Kg and 3.73 mM/kg, respectively, by intraperitoneal slow infusion in treatment regimens described in the literature on days 1, 5 and 10, after the 7th day of tumor implantation. The compounds were administered separately.

The subject of data set [11] is Ehrlich tumor. Conditions: Balb-c mice, intraperitoneal from day 7 after implant, DM-1 1.6 nM/kg daily, paclitaxel 15 μM/Kg, etoposide 3.73 mM/kg on days 1, 5, 10.
Excerpt: as §6
CONTROL GROUP—10 animals implanted with tumor, which after 7 days of application, received daily intraperitoneal doses of saline 0.9%;
Paclitaxel-treated group—10 animals implanted with tumor, which after 7 days of application, received intraperitoneal doses of paclitaxel chemotherapy in the 1st, 5th and 10th days of treatment;
Etoposide-treated group—10 animals implanted with tumor, which after 7 days of application, received intraperitoneal doses of etoposide chemotherapy in the 1st, 5th and 10th days of treatment; […]
Tumor growth in mice was measured by the dimensions on the longitudinal and transverse abdominal cavity, with the aid of a digital caliper. […] The mean area (A), mass (M) and tumor burden (C) were calculated using the following equations, respectively: A=nπ2; L2×T=M/2 (where L is the measured longitudinal and transverse extent of the T waist circumference).
Setting [12] is: group pre and post treated with DM-1.

Where two headings read alike, the source gives them in different places.

In the case of `O=P1(N(CCCl)CCCl)NCCCO1` (centres unmarked) [Cyclophosphamide, cyclophosphamide], the “cells with micronuclei found in the group” value in data set [1] (bone marrow smears) was “more than 200 cells”. Besides, the “Observed frequencies of polychromatic erythrocytes with micronuclei in 1000 polychromatic erythrocytes” value in data set [1] (DM-1 140 μM/Kg, 24 Hours) was 36.5 ± 1.0; in data set [1] (DM-1 140 μM/Kg, 48 Hours), 35.5 ± 1.0. Moreover, the “frequency of micronucleated polychromatic erythrocytes in 1000 cells” value in [1] (positive control group) is on record as 36 /1000.
In the case of `COc1cc(C=CC(=O)C=Cc2ccc(O)c(OC)c2)ccc1[O-].[Na+]` [DM-1, sodium 4-[5-(4-hydroxy-3-methoxy-phenyl)-3-oxo-penta-1,4-dienil]-2-methoxy-phenolate], the “increase of survival rate” value in [2] (group pre- and post-treated with DM-1) is recorded as 30%; in data set [2] (group pre-treated with DM-1), 50%. The “Observed frequencies of polychromatic erythrocytes with micronuclei in 1000 polychromatic erythrocytes” value in [1] (DM-1 140 μM/Kg, 24 Hours) worked out at 2.4 ± 0.5; in [1] (DM-1 140 μM/Kg, 48 Hours) it was 2.2 ± 0.5. Also, the “micronuclei in bone marrow smears (in words)” value in [1] (DM-1 140 μM/Kg, alone or 8 hours before cyclophosphamide 190 μM/Kg) is listed as “not found significant changes”. Moreover, the “platelet counts during treatment compared to the control group” value in data set [3] is “significant reductions”. The “erythrocytes (anemia)” value in data set [3] (mice treated with DM-1) is “does not induce anemia”. Moreover, the “formation of lung and liver metastases” value in data set [4] (setting [12]) and in data set [4] (group pre-treated with DM-1) was “inhibition” in each case. Also, the “percentage of cells in sub-G1 (apoptotic) phase” value in [5] (setting [12]) and in data set [5] (group pre-treated with DM-1) was “increased significantly” throughout. Moreover, the “proportion of quiescent cells in G0/G1 phase” value in data set [5] (protocols of treatment with DM-1) is “reduce”. Further, in [6], the “immunosuppression in animals with Ehrlich ascites tumor” value is “suppressed”. The antiproliferative activity result in data set [7] was “significant”. The “dorsal tumor area, average values” came out at 7.3±1.3 cm^2 in data set [8] (pre and post treated with DM-1 0.83 nM/kg daily, 14 days before and 14 days after B16F10 implant); 6.5±1.7 cm^2 in [8] (pretreated with DM-1 0.83 nM/kg daily for 14 days before B16F10 implant, no later treatment).
Take `C[C@@H](CN1CC(=O)NC(=O)C1)N1CC(=O)NC(=O)C1` [Dexrazoxane]: the “rates of cell damage” value in data set [9] (as co-adjuvant: dexrazoxane with etoposide, amifostine with cisplatin or paclitaxel) was over 45%.
As for `O=S(=O)(O)CCS` [Mesna], the antimutagenic action result in [9] (in combination with paclitaxel) is reported as “moderate”.
As to `COc1cc([C@@H]2c3cc4c(cc3[C@@H](O[C@@H]3O[C@@H]5CO[C@@H](C)O[C@H]5[C@H](O)[C@H]3O)[C@H]3COC(=O)[C@H]23)OCO4)cc(OC)c1O` [etoposide], in [10], the “decrease of metastases in kidney” value came to 10% and the “decrease of metastases in spleen” value is on record as 30%. The “median values of tumor area” value in [11] stood at 8.6±1.0 cm^2.
For the molecule `CC(=O)O[C@H]1C(=O)[C@@]2(C)[C@H]([C@H](OC(=O)c3ccccc3)[C@]3(O)C[C@H](OC(=O)[C@H](O)[C@@H](NC(=O)c4ccccc4)c4ccccc4)C(C)=C1C3(C)C)[C@]1(OC(C)=O)CO[C@@H]1C[C@@H]2O` [paclitaxel, reference compound], in [2] (treated after tumor implantation), the “increase of survival rate” value is recorded as “no significant changes”. Further, in data set [10], the “decrease of metastases in kidney” value stood at 30% and the “decrease of metastases in spleen” value worked out at 50%. In data set [11], the “median values of tumor area” value stood at 11.4±1 cm^2. Moreover, the “platelet counts during treatment compared to the control group” value in data set [3] is listed as “increase”. Further, the “proportion of cells killed by necrosis” value in [5] (compared to control and DM-1 groups) is on record as “significant increase”. The same molecule yielded a tumor area in [8] (B16F10, treated after tumor implantation, paclitaxel 15 μM/Kg i.p., DM-1 0.83 nM/kg daily) of 9.4 cm^2.
